Results reported in US12070505B2, “Targeted peptide-drug conjugates” (priority 2021, dated 2024).

Key:
MES-SA/MX2 cells = assay: LC50 by CCK-8 assay, Dox-resistant MES-SA/MX2; assay type: cell-based; settings: FIG. 10: after 72 h
Method: Dox-resistant Cell Lines. Acquired resistance to Dox was induced in wild-type triple-negative breast cancer cell line MDA-MB-231 (MDA-231WT) as described before (Aliabadi, H. M.; et al. J. Control. Release 172:219-228, 2013, which is incorporated herein by reference). Briefly, MDA-231WT cells were exposed to Dox at an initial concentration of 0.05 μg/mL for one week or three consecutive expansions (whichever came later). […] Resistance induction was confirmed via calculation of LC50 following a sigmoidal effect model explained elsewhere (Bousoik, E.; et al. Front. Oncol. 9:1070, 2019, which is incorporated herein by reference) and determination of P-glycoprotein (P-gp) expression.
The cytotoxicity of the peptide-Dox conjugate in resistant triple-negative breast cancer and uterine sarcoma cell lines (MDA-231R, MDA-231WT, and MES-SA/MX2) was evaluated by a Cell Counting 8 (CCK8) KIT. The peptide-Dox conjugate was added to the cells in triplicate with different concentrations (0-40 μM). […] After this incubation period, 10 μL of CCK8 reagent was added to each well, and plates were incubated at the same conditions for 2 h. The absorbance of each well was determined at 450 nm using the SpectraMAX M5 microplate reader. […]
Efficiency in Dox-Resistant Cells. […] The cell viability was determined after this incubation period using the CCK-8 assay, as explained above. […]

CCRF-CEM cells = assay: Cytotoxicity, MTS cell viability assay, CCRF-CEM; settings: 5 μM
Method: In Vitro Cytotoxicity Assay of Peptide-Drug Conjugates. […] In brief, CCRF-CEM cells were seeded at 50,000 cells in 0.1 mL per well in 98-well plates. In the case of other cell lines, the cells were seeded at 5,000 cells (0.1 mL per well in 96-well plates). […] Dox (5 μM) was used as a positive control, while water and cell culture medium were used as negative controls. The compounds were dissolved in water; water was used as a negative control to normalize the data. After the incubation period, MTS reagent (20 μL) was added to each well. The incubation was continued for 2 h. Cell viability was then determined by determination of the fluorescence intensity at 490 nm using a SpectraMax M2 microplate spectrophotometer. The percentage of cell viability was then calculated using the following equation: [(OD value of cells treated with the compound)−(OD value of culture medium)]/[(OD value of control cells)−(OD value of culture medium)]×100% (FIGS. 6-9).

SMILES: COc1cccc2c1C(=O)c1c(O)c3c(c(O)c1C2=O)C[C@@](O)(C(=O)CO)C[C@@H]3O[C@H]1C[C@H](N)[C@H](O)[C@H](C)O1 [Dox, doxorubicin, reference compound]
- CC50 (MES-SA/MX2 cells): 41 µM
- Cell Viability (%) after 24 h (CCRF-CEM cells): 48 ± 2%
- Cell Viability (%) after 72 h (CCRF-CEM cells): 15 ± 3%
- reduction of cell survival/viability (CCRF-CEM cells; 24 h): 52%
- reduction of cell survival/viability (CCRF-CEM cells; 72 h): 85%
